Source: patent publication US20220009920A1 (GB005, Inc., priority 2020, published 2022)

Tests used:
Experiment in all cases: Large panel kinase profiling
Assay type in all cases: biochemical
Conditions in all cases: 1 μM test article, 1 mM ATP
[1] = target: T1, CSNK2A1/CK2A1 (Homo sapiens, UniProt P68400)
T1 construct: AssayQuant Technologies, Inc. (service laboratory)
Outline: (§1)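 Kinase activity was followed with the PhosphoSens CSox-Sensor platform, testing compound at 1 μM in the presence of 1 mM ATP. Reactions ran at 30° C. and fluorescence (Ex 360 nm/Em 485 nm) was read kinetically every 1 min.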

[2] = target: ALK (Homo sapiens, UniProt Q9UM73)
Outline: as §1

[3] = target: T2, MARK3 (Homo sapiens, UniProt P27448)
T2 construct: AssayQuant Technologies, Inc. (assay service)
T2 sequence (P27448 whole entry, species assumed): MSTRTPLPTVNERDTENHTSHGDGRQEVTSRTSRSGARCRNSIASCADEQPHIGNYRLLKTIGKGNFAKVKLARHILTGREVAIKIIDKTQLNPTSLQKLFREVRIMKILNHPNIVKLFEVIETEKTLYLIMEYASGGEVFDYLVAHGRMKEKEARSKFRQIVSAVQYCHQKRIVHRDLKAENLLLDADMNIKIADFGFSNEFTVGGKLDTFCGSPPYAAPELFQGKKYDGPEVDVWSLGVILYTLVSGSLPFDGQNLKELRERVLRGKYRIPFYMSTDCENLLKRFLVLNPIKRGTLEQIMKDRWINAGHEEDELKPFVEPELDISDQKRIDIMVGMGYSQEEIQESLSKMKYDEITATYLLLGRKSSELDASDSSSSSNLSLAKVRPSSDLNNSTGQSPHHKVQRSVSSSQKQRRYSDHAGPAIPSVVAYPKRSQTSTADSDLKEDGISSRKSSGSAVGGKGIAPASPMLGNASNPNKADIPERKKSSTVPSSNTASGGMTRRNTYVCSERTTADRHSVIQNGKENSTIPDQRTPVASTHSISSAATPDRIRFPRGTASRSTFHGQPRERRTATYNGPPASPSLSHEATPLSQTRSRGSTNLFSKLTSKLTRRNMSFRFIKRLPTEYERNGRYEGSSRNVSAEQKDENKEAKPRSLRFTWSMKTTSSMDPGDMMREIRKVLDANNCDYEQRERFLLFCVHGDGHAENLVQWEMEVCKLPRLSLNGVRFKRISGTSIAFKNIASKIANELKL
Outline: as §1

[4] = target: T3, DAPK1 (Homo sapiens, UniProt P53355)
T3 construct: AssayQuant Technologies, Inc. (service laboratory)
T3 sequence (P53355 whole entry, species assumed): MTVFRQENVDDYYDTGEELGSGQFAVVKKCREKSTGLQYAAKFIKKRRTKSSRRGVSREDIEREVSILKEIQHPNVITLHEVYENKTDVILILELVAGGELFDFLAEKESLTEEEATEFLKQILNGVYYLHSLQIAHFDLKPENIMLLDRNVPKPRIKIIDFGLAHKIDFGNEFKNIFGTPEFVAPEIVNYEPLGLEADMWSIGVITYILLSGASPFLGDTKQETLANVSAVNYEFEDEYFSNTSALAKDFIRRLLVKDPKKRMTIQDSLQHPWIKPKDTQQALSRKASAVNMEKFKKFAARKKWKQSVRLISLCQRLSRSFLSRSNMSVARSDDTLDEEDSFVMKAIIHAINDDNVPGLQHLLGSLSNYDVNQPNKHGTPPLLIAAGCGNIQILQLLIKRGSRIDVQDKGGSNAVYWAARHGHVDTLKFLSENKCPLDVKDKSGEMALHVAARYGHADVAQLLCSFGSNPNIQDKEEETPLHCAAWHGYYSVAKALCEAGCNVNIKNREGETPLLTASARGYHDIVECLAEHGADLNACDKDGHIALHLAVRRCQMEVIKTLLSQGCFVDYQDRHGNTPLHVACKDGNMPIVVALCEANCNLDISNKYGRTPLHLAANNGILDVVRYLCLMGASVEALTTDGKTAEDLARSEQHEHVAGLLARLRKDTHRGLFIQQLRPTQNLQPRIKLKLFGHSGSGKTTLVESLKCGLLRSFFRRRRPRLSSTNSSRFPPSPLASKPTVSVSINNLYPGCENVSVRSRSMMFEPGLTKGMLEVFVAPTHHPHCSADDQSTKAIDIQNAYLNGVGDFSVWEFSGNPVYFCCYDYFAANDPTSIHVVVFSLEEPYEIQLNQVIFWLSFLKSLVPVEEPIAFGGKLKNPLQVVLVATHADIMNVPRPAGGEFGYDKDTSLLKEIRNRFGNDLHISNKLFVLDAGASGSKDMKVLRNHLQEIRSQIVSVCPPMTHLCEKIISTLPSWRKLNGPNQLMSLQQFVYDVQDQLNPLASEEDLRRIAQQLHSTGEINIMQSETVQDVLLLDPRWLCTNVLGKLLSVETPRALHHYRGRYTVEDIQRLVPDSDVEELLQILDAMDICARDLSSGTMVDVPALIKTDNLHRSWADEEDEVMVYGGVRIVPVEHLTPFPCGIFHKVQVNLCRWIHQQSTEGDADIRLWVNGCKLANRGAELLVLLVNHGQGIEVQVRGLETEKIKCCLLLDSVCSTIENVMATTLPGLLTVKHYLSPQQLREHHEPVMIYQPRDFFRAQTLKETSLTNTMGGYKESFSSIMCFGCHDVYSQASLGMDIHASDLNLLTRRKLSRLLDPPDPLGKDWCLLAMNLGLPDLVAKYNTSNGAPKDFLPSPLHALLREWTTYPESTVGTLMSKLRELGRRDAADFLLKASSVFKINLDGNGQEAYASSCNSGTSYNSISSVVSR
Outline: as §1

[5] = target: T4, MUSK (Homo sapiens, UniProt O15146)
T4 construct: AssayQuant Technologies, Inc. (assay service)
T4 sequence (O15146 24-869): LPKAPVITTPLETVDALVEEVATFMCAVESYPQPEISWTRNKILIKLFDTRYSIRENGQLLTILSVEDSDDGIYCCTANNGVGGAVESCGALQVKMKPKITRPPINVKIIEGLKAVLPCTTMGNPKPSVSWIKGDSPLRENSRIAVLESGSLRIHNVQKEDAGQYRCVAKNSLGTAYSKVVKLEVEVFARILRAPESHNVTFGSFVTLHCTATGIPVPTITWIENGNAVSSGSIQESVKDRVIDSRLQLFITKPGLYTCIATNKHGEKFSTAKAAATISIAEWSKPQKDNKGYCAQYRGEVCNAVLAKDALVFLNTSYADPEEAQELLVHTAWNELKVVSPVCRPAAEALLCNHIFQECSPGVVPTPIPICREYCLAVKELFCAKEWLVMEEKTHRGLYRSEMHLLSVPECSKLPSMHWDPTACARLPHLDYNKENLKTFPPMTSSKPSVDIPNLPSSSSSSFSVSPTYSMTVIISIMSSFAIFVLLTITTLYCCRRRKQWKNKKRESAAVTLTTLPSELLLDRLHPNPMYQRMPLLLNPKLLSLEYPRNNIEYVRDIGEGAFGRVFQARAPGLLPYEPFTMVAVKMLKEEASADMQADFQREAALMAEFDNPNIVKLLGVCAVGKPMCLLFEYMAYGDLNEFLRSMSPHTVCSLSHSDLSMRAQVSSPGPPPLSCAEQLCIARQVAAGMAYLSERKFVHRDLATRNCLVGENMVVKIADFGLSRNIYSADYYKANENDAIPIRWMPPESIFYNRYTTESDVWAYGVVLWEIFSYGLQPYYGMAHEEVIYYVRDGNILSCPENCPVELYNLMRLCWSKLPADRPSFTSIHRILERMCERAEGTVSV
Outline: as §1

[6] = target: T5, CSNK1D/CK1D (Homo sapiens, UniProt P48730)
T5 construct: AssayQuant Technologies, Inc. (service laboratory)
T5 sequence (P48730 whole entry): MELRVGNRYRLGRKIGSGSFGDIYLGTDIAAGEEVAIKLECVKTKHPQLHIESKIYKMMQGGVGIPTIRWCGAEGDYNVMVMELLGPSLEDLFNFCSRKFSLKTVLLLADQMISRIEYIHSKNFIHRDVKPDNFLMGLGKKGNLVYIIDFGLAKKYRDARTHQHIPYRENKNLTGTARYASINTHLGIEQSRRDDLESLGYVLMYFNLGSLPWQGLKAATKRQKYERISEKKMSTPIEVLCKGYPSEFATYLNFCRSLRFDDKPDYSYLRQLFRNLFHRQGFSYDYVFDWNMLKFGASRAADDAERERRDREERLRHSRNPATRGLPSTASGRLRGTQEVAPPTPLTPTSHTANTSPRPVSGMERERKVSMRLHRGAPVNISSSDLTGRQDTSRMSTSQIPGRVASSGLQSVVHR
Outline: as §1

[7] = target: PRKCG/PKCG (Homo sapiens, UniProt P05129)
Outline: as §1

[8] = target: T6, FLT1 (Homo sapiens, UniProt P17948)
T6 construct: AssayQuant Technologies, Inc. (service provider)
T6 sequence (P17948 27-1338, species assumed): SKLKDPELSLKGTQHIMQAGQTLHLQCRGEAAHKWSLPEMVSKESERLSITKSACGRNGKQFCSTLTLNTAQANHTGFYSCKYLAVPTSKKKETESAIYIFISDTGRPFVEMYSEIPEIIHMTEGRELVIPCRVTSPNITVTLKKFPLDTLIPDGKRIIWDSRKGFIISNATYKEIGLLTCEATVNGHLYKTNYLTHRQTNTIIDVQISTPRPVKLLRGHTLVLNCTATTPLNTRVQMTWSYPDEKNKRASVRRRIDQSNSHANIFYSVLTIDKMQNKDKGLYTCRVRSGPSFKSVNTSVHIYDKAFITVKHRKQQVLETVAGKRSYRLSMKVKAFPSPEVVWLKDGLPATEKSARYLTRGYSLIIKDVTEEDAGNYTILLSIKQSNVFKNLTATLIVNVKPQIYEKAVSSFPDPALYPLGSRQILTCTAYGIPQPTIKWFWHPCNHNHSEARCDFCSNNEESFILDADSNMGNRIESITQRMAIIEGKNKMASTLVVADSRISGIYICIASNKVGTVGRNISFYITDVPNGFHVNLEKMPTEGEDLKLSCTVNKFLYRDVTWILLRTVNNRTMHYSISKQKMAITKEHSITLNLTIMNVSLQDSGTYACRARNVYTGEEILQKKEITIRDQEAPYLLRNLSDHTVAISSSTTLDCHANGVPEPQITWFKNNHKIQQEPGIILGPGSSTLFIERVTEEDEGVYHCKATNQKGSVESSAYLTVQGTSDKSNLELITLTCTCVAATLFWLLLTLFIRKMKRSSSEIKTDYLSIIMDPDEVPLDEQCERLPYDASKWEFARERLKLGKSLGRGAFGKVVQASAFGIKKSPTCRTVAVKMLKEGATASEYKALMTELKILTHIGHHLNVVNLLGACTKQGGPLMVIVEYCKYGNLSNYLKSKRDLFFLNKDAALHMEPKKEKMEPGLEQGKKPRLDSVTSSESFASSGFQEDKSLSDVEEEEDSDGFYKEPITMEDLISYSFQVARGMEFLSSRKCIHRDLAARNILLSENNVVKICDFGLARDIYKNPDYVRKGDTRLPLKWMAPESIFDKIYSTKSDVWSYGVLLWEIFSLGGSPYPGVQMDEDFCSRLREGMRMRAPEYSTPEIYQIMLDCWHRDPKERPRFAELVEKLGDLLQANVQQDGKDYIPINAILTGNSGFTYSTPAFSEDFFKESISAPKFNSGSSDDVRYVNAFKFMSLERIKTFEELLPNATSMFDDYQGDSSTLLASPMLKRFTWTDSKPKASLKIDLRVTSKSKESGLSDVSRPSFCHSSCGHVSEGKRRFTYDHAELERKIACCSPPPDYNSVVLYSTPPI
Outline: as §1

[9] = target: T7, CAMK4 (Homo sapiens, UniProt Q16566)
T7 construct: AssayQuant Technologies, Inc. (ran the panel)
T7 sequence (Q16566 1-473): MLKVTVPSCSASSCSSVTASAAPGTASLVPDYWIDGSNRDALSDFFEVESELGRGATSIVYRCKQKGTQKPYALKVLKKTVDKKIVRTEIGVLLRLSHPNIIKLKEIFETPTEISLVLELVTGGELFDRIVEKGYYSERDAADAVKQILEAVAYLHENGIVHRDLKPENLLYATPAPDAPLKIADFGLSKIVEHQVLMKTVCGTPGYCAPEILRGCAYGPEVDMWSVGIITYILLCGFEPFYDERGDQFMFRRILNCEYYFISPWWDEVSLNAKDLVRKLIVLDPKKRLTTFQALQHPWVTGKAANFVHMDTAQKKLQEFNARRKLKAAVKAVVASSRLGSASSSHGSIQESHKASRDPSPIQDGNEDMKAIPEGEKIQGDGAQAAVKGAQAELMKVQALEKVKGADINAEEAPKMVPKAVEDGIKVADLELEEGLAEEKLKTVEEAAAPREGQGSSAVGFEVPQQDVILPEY
Outline: as §1

[10] = target: PAK2 (Homo sapiens, UniProt Q13177)
Outline: as §1

[11] = target: T8, MYLK2 (Homo sapiens, UniProt Q9H1R3)
T8 construct: AssayQuant Technologies, Inc. (assay service)
Outline: as §1

[12] = target: T9, TXK (Homo sapiens, UniProt P42681)
T9 construct: AssayQuant Technologies, Inc. (contract laboratory that ran the panel)
T9 sequence (P42681 1-527): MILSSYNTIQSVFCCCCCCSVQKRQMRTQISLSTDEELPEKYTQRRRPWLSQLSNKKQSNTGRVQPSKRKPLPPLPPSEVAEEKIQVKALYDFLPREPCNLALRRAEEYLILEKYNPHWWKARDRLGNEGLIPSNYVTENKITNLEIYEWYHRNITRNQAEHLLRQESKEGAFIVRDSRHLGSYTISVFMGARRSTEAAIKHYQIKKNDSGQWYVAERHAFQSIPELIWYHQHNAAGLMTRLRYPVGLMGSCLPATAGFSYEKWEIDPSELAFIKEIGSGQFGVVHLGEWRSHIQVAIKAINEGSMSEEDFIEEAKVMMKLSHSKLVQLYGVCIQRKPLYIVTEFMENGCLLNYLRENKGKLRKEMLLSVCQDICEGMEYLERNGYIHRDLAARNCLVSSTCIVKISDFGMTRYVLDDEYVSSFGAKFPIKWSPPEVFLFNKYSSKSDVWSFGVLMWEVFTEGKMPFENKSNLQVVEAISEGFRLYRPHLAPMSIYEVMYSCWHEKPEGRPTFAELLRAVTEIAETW
Outline: as §1

T1 sequence (P68400 whole entry): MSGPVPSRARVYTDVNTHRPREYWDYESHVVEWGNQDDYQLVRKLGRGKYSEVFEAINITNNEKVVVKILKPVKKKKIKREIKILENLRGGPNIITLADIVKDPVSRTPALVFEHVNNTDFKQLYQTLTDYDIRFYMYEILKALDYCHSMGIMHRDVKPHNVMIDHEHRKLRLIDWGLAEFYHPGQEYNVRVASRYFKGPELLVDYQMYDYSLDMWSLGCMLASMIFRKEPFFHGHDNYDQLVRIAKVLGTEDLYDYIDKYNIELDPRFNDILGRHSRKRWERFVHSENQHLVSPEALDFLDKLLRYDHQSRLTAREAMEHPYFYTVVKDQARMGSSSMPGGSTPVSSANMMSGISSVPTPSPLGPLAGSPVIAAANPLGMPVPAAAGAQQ

Structure (SMILES)	inhibition at 1 µM [1]	inhibition at 1 µM [2]	inhibition at 1 µM [3]	inhibition at 1 µM [4]	inhibition at 1 µM [5]	inhibition at 1 µM [6]	inhibition at 1 µM [7]	inhibition at 1 µM [8]	inhibition at 1 µM [9]	inhibition at 1 µM [10]	inhibition at 1 µM [11]	inhibition at 1 µM [12]
C=CC(=O)N1CCCC(c2c(F)cc(C(N)=O)c3[nH]c4c(c23)CCCCC4)C1 (single isomer, unassigned) [Compound 5-6]	0.4%	-26.4%	1.6%	8.1%	10.9%	4.2%	-7.3%	12.1%	15.7%	13.9%	16.8%	74.7%
C=CC(=O)N1CCC[C@@H](c2c(F)cc(C(N)=O)c3[nH]c4c(c23)CC2(CC4)CC2)C1 [Compound 6-2, (S)-5-(1-acryloylpiperidin-3-yl)-6-fluoro-1,2,4,9-tetrahydrospiro[carbazole-3,1′-cyclopropane]-8-carboxamide]	-12%	11.7%	-10.6%	22.1%	-3.1%	11.7%	8.6%	20.7%	26.6%	1.3%	-28.4%	59.1%
C=CC(=O)N1CCC[C@@H](c2c(F)cc(C(N)=O)c3[nH]c4c(c23)CCC4)C1 [Compound 10-2, (S)-8-(1-acryloylpiperidin-3-yl)-7-fluoro-1,2,3,4-tetrahydrocyclo-penta[b]indole-5-carboxamide]	-32%	-2.7%	-90.5%	-20.3%	3%	16.5%	1.3%	8.6%	15.3%	7%	-33.6%	71%
